Results on 38 molecules are retold here after patent publication US20060045953A1 (priority 2004, published 2006).

Each structure is given as a SMILES string. Read-outs that look alike come from different tables or passages of the source.

In this test the target is T1, hT1R1/hT1R3 umami receptor (Homo sapiens, UniProt Q7RTX0+Q7RTX1).
T1 construct: expressed in transfected cells; host or cells: HEK293 derivative stably expressing Gα15, clone I-17, expression induced with mifepristone
T1 sequence (Q7RTX1 21-841): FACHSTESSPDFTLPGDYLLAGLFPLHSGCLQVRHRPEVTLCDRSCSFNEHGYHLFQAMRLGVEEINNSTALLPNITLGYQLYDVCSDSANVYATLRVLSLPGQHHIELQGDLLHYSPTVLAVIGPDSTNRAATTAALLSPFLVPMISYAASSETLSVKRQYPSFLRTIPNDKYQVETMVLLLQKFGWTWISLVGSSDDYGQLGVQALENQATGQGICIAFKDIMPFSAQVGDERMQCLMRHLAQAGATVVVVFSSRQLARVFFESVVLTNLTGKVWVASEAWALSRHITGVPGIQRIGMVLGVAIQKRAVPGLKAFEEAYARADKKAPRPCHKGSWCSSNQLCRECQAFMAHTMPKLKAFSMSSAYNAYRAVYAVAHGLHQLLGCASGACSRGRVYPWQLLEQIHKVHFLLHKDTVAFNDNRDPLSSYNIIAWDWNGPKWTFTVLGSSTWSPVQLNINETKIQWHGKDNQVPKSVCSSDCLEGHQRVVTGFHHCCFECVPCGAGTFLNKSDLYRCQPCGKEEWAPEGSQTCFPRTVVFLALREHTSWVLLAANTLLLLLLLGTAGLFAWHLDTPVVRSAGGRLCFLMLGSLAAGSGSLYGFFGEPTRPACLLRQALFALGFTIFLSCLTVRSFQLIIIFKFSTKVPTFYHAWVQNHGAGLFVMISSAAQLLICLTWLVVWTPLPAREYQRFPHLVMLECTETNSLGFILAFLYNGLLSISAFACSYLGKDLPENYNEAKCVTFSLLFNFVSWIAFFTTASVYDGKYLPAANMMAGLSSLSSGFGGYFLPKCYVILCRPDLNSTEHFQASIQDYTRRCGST
T1 sequence (Q7RTX0 21-852): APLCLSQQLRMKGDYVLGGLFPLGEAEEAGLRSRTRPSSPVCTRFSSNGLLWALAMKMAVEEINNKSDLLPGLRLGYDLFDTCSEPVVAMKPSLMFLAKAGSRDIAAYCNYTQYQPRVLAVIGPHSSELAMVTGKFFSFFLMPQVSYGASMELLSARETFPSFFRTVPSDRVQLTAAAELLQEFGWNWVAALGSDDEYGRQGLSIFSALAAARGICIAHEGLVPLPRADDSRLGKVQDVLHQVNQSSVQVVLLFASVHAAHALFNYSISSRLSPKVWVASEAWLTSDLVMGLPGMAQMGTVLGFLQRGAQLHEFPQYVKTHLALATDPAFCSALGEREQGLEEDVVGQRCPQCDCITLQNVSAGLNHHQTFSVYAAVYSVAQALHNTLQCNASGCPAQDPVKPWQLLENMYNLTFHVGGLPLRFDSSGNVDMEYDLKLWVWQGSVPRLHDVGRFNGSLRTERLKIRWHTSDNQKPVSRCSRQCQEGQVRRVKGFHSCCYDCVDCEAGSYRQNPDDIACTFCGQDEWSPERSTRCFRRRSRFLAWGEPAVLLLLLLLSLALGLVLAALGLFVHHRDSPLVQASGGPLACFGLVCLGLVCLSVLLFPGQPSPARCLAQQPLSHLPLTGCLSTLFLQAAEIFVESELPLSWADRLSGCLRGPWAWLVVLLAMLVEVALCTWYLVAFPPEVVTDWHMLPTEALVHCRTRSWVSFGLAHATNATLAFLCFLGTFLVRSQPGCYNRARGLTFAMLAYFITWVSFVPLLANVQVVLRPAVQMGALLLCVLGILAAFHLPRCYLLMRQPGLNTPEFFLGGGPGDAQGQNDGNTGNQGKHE
The test can be described thus: In vitro hT1R1/hT1R3 umami taste receptor activation assay (FLIPR, dose response). In kind it is cell-based.

The mark [1] stands for this setting: read-out: EC50 for activation of a hT1R1/hT1R3 umami receptor expressed in an HEK293 cell line.
The mark [2] stands for this setting: Table A, Umami Amides, read-out: Umami EC50.
Setting [3] is: Table D, Umami Acrylamides, read-out: Umami EC50.
Where [4] appears, read: Table C, Umami Ureas, read-out: Umami EC50.

Consider `CCCC(NC(=O)c1ccc2c(c1)OCO2)C(C)C` (centres unmarked) [Example 3, N-(2-methylhexan-3-yl)benzo[d][1,3]dioxole-5-carboxamide], for which, under setting [1], the EC50 is 610 nM.

For the molecule `CCC(CC(C)C)NC(=O)c1cc2cc(OC)ccc2o1` (centres unmarked) [Example 31, 5-methoxy-N-(5-methylhexan-3-yl)benzofuran-2-carboxamide], the EC50 under setting [1] was 1040 nM.

For `CCCC(CCC)NC(=O)c1ccc(OC)cc1O` [Example A101, N-(heptan-4-yl)-2-hydroxy-4-methoxybenzamide], the EC50 under setting [2] worked out at 1160 nM.

For `COC(=O)[C@@H](CC(C)C)NC(=O)/C=C/c1ccccc1` [Example D11, (R)-methyl 2-cinnamamido-4-methylpentanoate], the EC50 under setting [3] turned out to be 1170 nM.

For `COC(=O)[C@@H](CC(C)C)NC(=O)/C=C/c1ccsc1` [Example D10, (R,E)-methyl 4-methyl-2-(3-(thiophen-3-yl)acrylamido)pentanoate], the EC50 under setting [3] amounted to 1090 nM.

For the molecule `CCOC(=O)[C@H]1CCCC[C@H]1NC(=O)c1ccc(OC)c(Cl)c1` [Example A103, (1S,2R)-ethyl 2-(3-chloro-4-methoxybenzamido)cyclohexanecarboxylate], the EC50 under setting [2] stood at 1360 nM.

As for `Cc1occc1CNC(=O)C(=O)NCCc1ccccn1` [Example 153, N-((2-Methylfuran-3-yl)methyl)-N′-(2-(pyridin-2-yl)ethyl)oxalamide], the EC50 under setting [1] was found to be 1820 nM.

On to `CCCC(CC)NC(=O)c1cc2cc(OC)ccc2o1` (centres unmarked) [Example 29, N-(hexan-3-yl)-5-methoxybenzofuran-2-carboxamide], for which the EC50 under setting [1] stood at 400 nM.

As to `CCCC(CCC)NC(=O)/C=C/c1ccc(OC)cc1` [Example D5, (E)-N-(heptan-4-yl)-3-(4-methoxyphenyl)acrylamide], the EC50 under setting [3] was 720 nM.

With `COC[C@H](NC(=O)c1ccc(OC)c(C)c1)c1ccccc1` [Example A94, (R)-4-methoxy-N-(2-methoxy-1-phenylethyl)-3-methylbenzamide], the EC50 under setting [2] is 720 nM.

As to `CCCC(NC(=O)c1ccc(C)c(C)c1)C(C)C` (centres unmarked) [Example 68, 3,4-dimethyl-N-(2-methylhexan-3-yl)benzamide], the EC50 under setting [1] stood at 110 nM.

`CSc1ccc(C(=O)NC(C(C)C)C(C)C)cc1C` [Example A88, N-(2,4-dimethylpentan-3-yl)-3-methyl-4-(methylthio)benzamide]: the EC50 under setting [2] was 550 nM.

On to `CCC(NC(=O)Nc1ccc(C)cc1Cl)c1ccccc1` (centres unmarked) [Example C24, 1-(2-chloro-4-methylphenyl)-3-(1-phenylpropyl)urea], for which the EC50 under setting [4] turned out to be 480 nM.

For the molecule `COc1ccc2c(c1)CCC2NC(=O)c1ccc(OC)c(C)c1` (racemic) [Example 121-2, (R/S)-4-Methoxy-N-(5-methoxy-2,3-dihydro-1H-inden-1-yl)-3-methylbenzamide], under setting [1], the EC50 stood at 80 nM.

With `CC(C)C[C@H](CO)NC(=O)c1ccc2c(c1)OCO2` [Example 8, (R)-N-(1-hydroxy-4-methylpentan-2-yl)benzo [d][1,3]dioxole-5-carboxamide], the EC50 under setting [1] came to 9000 nM.

With `CCCC(CCC)NC(=O)c1cc(C)c(C)o1` [Example A31, N-(heptan-4-yl)-4,5-dimethylfuran-2-carboxamide], the EC50 under setting [2] came out at 620 nM.

As to `CCCC(CCC)NC(=O)c1ccc2c(c1)OC(F)(F)O2` [Example 22, 2,2-difluoro-N-(heptan-4-yl)benzo[d][1,3]dioxole-5-carboxamide], under setting [1], the EC50 was determined as 1510 nM.

As to `Cc1c(CNC(=O)C(=O)NCCc2ccccn2)sc2ccccc12` [Example B3], the EC50 (Table B, Umami Oxalamides, read-out: Umami EC50) turned out to be 810 nM.

Turning to `CCCC(CC(C)C)NC(=O)c1ccc(OC)c(C)c1` (centres unmarked) [Example 52, 4-methoxy-3-methyl-N-(2-methylheptan-4-yl)benzamide], the EC50 under setting [1] is 100 nM.

Regarding `CCCC(NC(=O)c1ccc2c(c1)OCO2)c1ccc(OC)cc1` (centres unmarked) [Example 115, Benzo[1,3]dioxole-5-carboxylic acid [1-(4-methoxy-phenyl)-butyl]-amide], the EC50 under setting [1] was found to be 4120 nM.

On to `COc1ccc(C(=O)NC2CCCCC2C)cc1Cl` (centres unmarked) [Example A77, 3-chloro-4-methoxy-N-(2-methylcyclohexyl)benzamide], for which the EC50 under setting [2] was determined as 440 nM.

Consider `O=C(NCc1ccc(OC(F)(F)F)cc1)c1cccs1` [Example 105, N-(4-(trifluoromethoxy)benzyl)thiophene-2-carboxamide], for which the EC50 under setting [1] was 2400 nM.

As for `CCCC(CCC)NC(=O)Nc1ccccc1OC` [Example C26, 1-(heptan-4-yl)-3-(2-methoxyphenyl)urea], the EC50 under setting [4] came out at 490 nM.

In the case of `CCCC(CCC)NC(=O)Nc1ccc2c(c1)OCO2` [Example C27, 1-(benzo[d][1,3]dioxol-5-yl)-3-(heptan-4-yl)urea], the EC50 under setting [4] worked out at 540 nM.

As for `CCCC(CCC)NC(=O)Nc1ccccc1Cl` [Example C1, 1-(2-chlorophenyl)-3-(heptan-4-yl)urea], under setting [4], the EC50 stood at 370 nM.

In the case of `Cc1ccc(C(=O)NC2CCCc3ccccc32)s1` (centres unmarked) [Example A39, 5-Methyl-thiophene-2-carboxylic acid (1,2,3,4-tetrahydro-naphthalen-1-yl) amide], the EC50 under setting [2] was 1310 nM.

On to `CCC(CC(C)C)NC(=O)c1ccc2c(c1)OCO2` (centres unmarked) [Example 5, N-(5-methylhexan-3-yl)benzo[d][1,3]dioxole-5-carboxamide], for which the EC50 under setting [1] was 570 nM.

As to `CCOC(=O)[C@@H]1CCCC[C@H]1NC(=O)c1cc2cc(OC)ccc2o1` [Example A15, (1R,2R)-ethyl 2-(5-methoxybenzofuran-2-carboxamido)cyclohexanecarboxylate], under setting [2], the EC50 was 1140 nM.

On to `CCCC(CCC)NC(=O)c1ccc(O)c(C)c1` [Example 58, 4-hydroxy-3-methyl-N-(1-propyl-butyl)-benzamide], for which the EC50 under setting [1] was 920 nM.

Take `CCCC(CCC)NC(=O)c1nccc2ccccc12` [Example 103, N-(heptan-4-yl)isoquinoline-1-carboxamide]: the EC50 under setting [1] was determined as 14200 nM.

With `CCCC(CCC)NC(=O)c1ccc2cc[nH]c2c1` [Example A35, N-(heptan-4-yl)-1H-indole-6-carboxamide], the EC50 under setting [2] turned out to be 820 nM.

As for `CCCC(COC(C)=O)NC(=O)c1ccc2c(c1)OCO2` (centres unmarked) [Example 14, 2-(benzo[d][1,3]dioxole-6-carboxamido)pentyl acetate], under setting [1], the EC50 turned out to be 11900 nM.

For `COC(=O)[C@@H](CC(C)C)NC(=O)c1ccc2occc2c1` [Example A9, (R)-methyl 2-(benzofuran-5-carboxamido)-4-methylpentanoate], under setting [2], the EC50 was 710 nM.

`COC(=O)[C@@H](CC(C)C)NC(=O)c1ccc(OC)c(C)c1` [Example A63, (R)-methyl 2-(4-methoxy-3-methylbenzamido)-4-methylpentanoate]: the EC50 under setting [2] amounted to 250 nM.

For the molecule `CCOc1ccc(/C=C/C(=O)NC(C)CC)cc1` (centres unmarked) [Example D13, (E)-N-sec-butyl-3-(4-ethoxyphenyl)acrylamide], the EC50 under setting [3] amounted to 1310 nM.

Consider `COc1cccc(CNC(=O)C(=O)NCCc2ccccn2)c1OC` [Example 146, N-(2,3-Dimethoxybenzyl)-N′-(2-(pyridin-2-yl)ethyl)oxalamide], for which, under setting [1], the EC50 turned out to be 690 nM.

As to `CCCC(CC(C)C)NC(=O)c1ccc2oc(C)nc2c1` (centres unmarked) [Example A23, 2-methyl-N-(2-methylheptan-4-yl)benzo[d]oxazole-5-carboxamide], the EC50 under setting [2] stood at 380 nM.

Take `CCCC(CCC)NC(=O)c1ccc(N(CC)CC)cc1` [Example 92, 4-(diethylamino)-N-(heptan-4-yl)benzamide]: the EC50 under setting [1] was determined as 7600 nM.
